Measured values published in patent publication US20240190889A1, “NEW CYCLOPENTA-THIENO-DIAZEPINE DERIVATIVES AS GABA A GAMMA1 POSITIVE ALLOSTERIC MODULATORS” (Hoffmann-La Roche Inc., priority 2021, published 2024).
Where two headings read alike, the source gives them in different places.

How the values were obtained:
[1] = biological target: human GABAA α1β3γ2 receptor (Homo sapiens (Human), UniProt P14867+P18507); assay: Radioligand binding assay, competition for [3H]Flumazenil, γ2-containing GABAA subtypes; conditions: for γ2/γ1 Selectivity Ratio: Ki α1β3γ2 (nM)/Ki α2β2γ1 (nM); for LogSel: Log[Ki α1β3γ2 (nM)/Ki α2β2γ1 (nM)]
Description: Membrane Preparation and Binding Assay for γ2-containing GABAA Subtypes
The affinity of compounds at GABAA γ2 subunit-containing receptors was measured by competition for [^3H]Flumazenil (81.1 Ci/mmol; Roche) binding to HEK293F cells expressing human (transiently transfected) receptors of composition α1β3γ2.
Harvested pellets from HEK293F cells expressing the different GABAA γ2 receptor subtypes were resuspended in Mannitol Buffer pH 7,2-7,4 and processed as described above for the cells expressing the GABAA γ1 subunit-containing receptors.
Assays were incubated to equilibrium for 1 hour at 4° C, and harvested onto GF/C uni-filters (Packard) by filtration using a Packard harvester and washing with ice-cold wash buffer (50 mM Tris; pH 7.5). After anhydrousing, filter-retained radioactivity was detected by liquid scintillation counting. Ki values were calculated using Excel-Fit (Microsoft) and are the means of two determinations.

[2] = biological target: human GABAA α5β2γ1 receptor (Homo sapiens (Human), UniProt P31644+Q8N1C3); assay: Radioligand binding assay, competition for [3H]RO7239181, γ1-containing GABAA subtypes; conditions: membranes from HEK293F cells, mean of two determinations
Description: Membrane Preparation and Binding Assay for γ1-containing GABAA Subtypes
The affinity of compounds at GABAA γ1 subunit-containing receptors was measured by competition for [^3H]RO7239181 (67.3 Ci/mmol: Roche) binding to membranes from HEK293F cells (ThermoFisher R79007) expressing human (transiently transfected) receptors of composition α5β2γ1, α2β2γ1, α1β2γ1. For better protein expression of the α2 subunit-containing receptors, the 28 amino acid long signal peptide (Metl to Ala28) of the human GABAA α2 subunit was substituted by the 31 amino acid long signal peptide (Met1 to Ser31) of human GABAA α5 subunit.
Harvested pellets from HEK293F cells expressing the different GABAA receptor subtypes were resuspended in Mannitol Buffer pH 7.2-7.4 (Mannitol 0.29 M, Tricthylamine 10 mM. Acetic acid 10 mM. EDTA 1 mM plus protease inhibitors (20 tablets Complete. Roche Diagnostics Cat. No. 05 056 489 001 per liter)), washed two times and then resuspended at 1:10 to 1:15 dilution in the same buffer. Cell disruption was performed by stirring the suspension in a Parr vessel #4637 at 435 psi for 15 minutes, and then the suspensions were centrifuged at 1000×g for 15 minutes at 4° C. (Beckman Avanti J-HC: rotor JS-4.2). The supernatant (S1) was transferred in a 21 Schott flask and the pellet (P1) was resuspended with Mannitol Buffer up to 175 ml. The resuspended pellet was transferred into a 250 ml Corning centrifugal beaker and centrifuged at 1500 ×g for 10 minutes at 4° C. (Beckman Avanti J-HC: rotor JS-4.2). The supernatant (S1) was then transferred in the 21 Schott flask and the pellet was discarded. The supernatants (S1) were centrifuged in 500ml Beckman polypropylene centrifugal beaker at 15 000×g for 30 minutes at 4° C. (Beckman Avanti J-20 XP; rotor JLA-10.500). The pellet (P2) was resuspended with Mannitol Buffer 1:1 and frozen at −80° C. The supernatant (S2) was centrifuged in 100 ml Beckman polypropylene centrifugal tubes at 48000×g for 50 minutes at 4 °C (Beckman Avanti J-20 XP: rotor JA-18). The supernatant (S3) was discarded and the pellet (P3) was resuspended with 1:1 Mannitol Buffer. The P2 and P3 protein concentration was determined with the BIORAD Standard assay method with bovine serum albumin as standard and measured on the NANO-Drop 1000. The membrane suspension was aliquots (500μl per tube) and stored at −80° C. until required.
Membrane homogenates were resuspended and polytronised (Polytron PT1200E Kinematica AG) in Potassium Phosphate 10 mM, KCl 100 mM binding buffer at pH 7.4 to a final assay concentration determined with a previous experiment.
Radioligand binding assays were carried out in a volume of 200 μL (96-well plates) which contained 100 μL of cell membranes. [^3H]RO7239181 at a concentration of 1.5 nM (α5β2γ1) or 20-30 nM (α1β2γ1, α2β2γ1) and the test compound in the range of [0.3-10000]33 10^−9 M. Nonspecific binding was defined by […] (α5β2γ1) and […] RO7239181 and typically represented less than 5% (α5β2γ1) and less than 20% (α1β2γ1, α2β2γ1) of the total binding. Assays were incubated to equilibrium for 1 hour at 4° C. and then, membranes were filtered onto unifilter (96-well white microplate with bonded GF/C filters preincubated 20-50 minutes in 0.3% Polyethylenimine) with a Filtermate 196 harvester (Packard BioScience) and washed 4 times with cold Potassium Phosphate 10 mM pH 7.4. KCl 100 mM binding buffer. After anhydrousing, filter-retained radioactivity was detected by liquid scintillation counting. Ki values were calculated using Excel-Fit (Microsoft) and are the means of two determinations.
Representative test results, obtained by the above described assay measuring binding affinity to HEK293 cells expressing human (h) receptors, are shown in the Table 1.

[3] = HEK293F cell membranes, [3H]Flumazenil 1 nM, mean of two determinations, read-out: Ki h-GABAA α1β3γ2

Structure (SMILES)	Ki [1] [nM]	γ2/γ1 Selectivity Ratio [1]	LogSel [1]	Ki [2] [nM]	Ki [1, 3] [nM]
C[C@@H]1N=C(c2c(F)cccc2Cl)c2c(sc3c2C[C@@H](C(F)F)C3)-n2c(C3CC3)nnc21 [Example 11, (7S,13R)-9-(2-chloro-6-fluoro-phenyl)-3-cyclopropyl-13-(difluoromethyl)-7-methyl-16-thia-2,4,5,8-tetrazatetracyclo [8.6.0.02,6.011,15]hexadeca-1(10),3,5,8,11(15)-pentaene]	1120	108.6	2.04	3.4	–
Cc1cnc2n1-c1sc3c(c1C(c1c(F)cccc1F)=N[C@H]2C)C[C@@H](C(F)F)C3 [Example 20, (7S,13R)-13-(difluoromethyl)-9-(2,6-difluorophenyl)-3,7-dimethyl-16-thia-2,5,8-triazatetracyclo [8.6.0.02,6.011,15]hexadeca-1(10),3,5,8,11(15)-pentaene]	191	53.4	1.73	3.6	–
Cc1nnc2n1-c1sc3c(c1C(c1c(F)cccc1F)=NC2)C[C@@H](C#N)C3 [Example 2, (13R)-9-(2,6-difluorophenyl)-3-methyl-16-thia-2,4,5,8-tetrazatetracyclo [8.6.0.02,6.011,15]hexadeca-1(10),3,5,8,11(15)-pentaene-13-carbonitrile]	–	50.7	1.71	16.3	2160
C[C@@H]1N=C(c2c(F)cccc2F)c2c(sc3c2C[C@@H](C(F)F)C3)-n2c(C3CC3)nnc21 [Example 8, (7S,13R)-3-cyclopropyl-13-(difluoromethyl)-9-(2,6-difluorophenyl)-7-methyl-16-thia-2,4,5,8-tetrazatetracyclo [8.6.0.02,6.011,15]hexadeca-1(10),3,5,8,11(15)-pentaene]	455	99.2	2.00	1.9	–
Cc1nnc2n1-c1sc3c(c1C(c1c(F)cccc1Cl)=NC2)C[C@@H](C#N)C3 [Example 1, (13R)-9-(2-chloro-6-fluoro-phenyl)-3-methyl-16-thia-2,4,5,8-tetrazatetracyclo [8.6.0.02,6.011,15]hexadeca-1(10),3,5,8,11(15)-pentaene-13-carbonitrile]	–	49.0	1.69	8.8	1250
Cc1nc2n(n1)-c1sc3c(c1C(c1c(F)cccc1F)=N[C@H]2C)C[C@@H](C(F)F)C3 [Example 16, (7S,13R)-13-(difluoromethyl)-9-(2,6-difluorophenyl)-4,7-dimethyl-16-thia-2,3,5,8-tetrazatetracyclo [8.6.0.02,6.011,15]hexadeca-1(10),3,5,8,11(15)-pentaene]	448	191.1	2.28	1	–
Fc1cccc(F)c1C1=NCc2nnc(-c3cccnn3)n2-c2sc3c(c21)C[C@@H](C(F)F)C3 [Example 10, (13R)-13-(difluoromethyl)-9-(2,6-difluorophenyl)-3-pyridazin-3-yl-16-thia-2,4,5,8-tetrazatetracyclo [8.6.0.02,6.011,15]hexadeca-1(10),3,5,8,11(15)-pentaene]	3220	1090.8	3.04	3	–
Cc1nnc2n1-c1sc3c(c1C(c1c(F)cccc1F)=N[C@H]2C)C[C@@H](C(F)F)C3 [Example 5, (7S,13R)-13-(difluoromethyl)-9-(2,6-difluorophenyl)-3,7-dimethyl-16-thia-2,4,5,8-tetrazatetracyclo [8.6.0.02,6.011,15]hexadeca-1(10),3,5,8,11(15)-pentaene]	228	66.5	1.82	1.2	–
Fc1cccc(Cl)c1C1=NCc2nnc(C3CC3)n2-c2sc3c(c21)C[C@@H](C(F)F)C3 [Example 6, (13R)-9-(2-chloro-6-fluoro-phenyl)-3-cyclopropyl-13-(difluoromethyl)-16-thia-2,4,5,8-tetrazatetracyclo [8.6.0.02,6.011,15]hexadeca-1(10),3,5,8,11(15)-pentaene]	647	97.7	1.99	3.4	–
Cc1nnc2n1-c1sc3c(c1C(c1c(F)cccc1Cl)=N[C@H]2C)C[C@@H](C(F)F)C3 [Example 9, (7S,13R)-9-(2-chloro-6-fluoro-phenyl)-13-(difluoromethyl)-3,7-dimethyl-16-thia-2,4,5,8-tetrazatetracyclo [8.6.0.02,6.011,15]hexadeca-1(10),3,5,8,11(15)-pentaene]	366	101.3	2.01	1.6	–
C[C@@H]1N=C(c2c(F)cccc2F)c2c(sc3c2C[C@@H](C(F)F)C3)-n2nc(C(=O)NCCO)nc21 [Example 18, (7S,13R)-13-(difluoromethyl)-9-(2,6-difluorophenyl)-N-(2-hydroxyethyl)-7-methyl-16-thia-2,3,5,8-tetrazatetracyclo [8.6.0.02,6.011,15]hexadeca-1(10),3,5,8,11(15)-pentaene-4-carboxamide]	–	107.2	2.03	2.5	614
Cc1nnc2n1-c1sc3c(c1C(c1c(F)cccc1F)=N[C@H]2C)C[C@@H](C(F)(F)F)C3 [Example 13, (7S,13R)-9-(2,6-difluorophenyl)-3,7-dimethyl-13-(trifluoromethyl)-16-thia-2,4,5,8-tetrazatetracyclo [8.6.0.02,6.011,15]hexadeca-1(10),3,5,8,11(15)-pentaene]	705	43.5	1.64	5.9	–
C[C@@H]1N=C(c2c(F)cccc2F)c2c(sc3c2C[C@@H](C(F)F)C3)-n2c(CO)cnc21 [Example 21, [(7S,13R)-13-(difluoromethyl)-9-(2,6-difluorophenyl)-7-methyl-16-thia-2,5,8-triazatetracyclo [8.6.0.02,6.011,15]hexadeca-1(10),3,5,8,11(15)-pentaen-3-yl]methanol]	606	127.6	2.11	4.7	–
Cc1nnc2n1-c1sc3c(c1C(c1c(F)cccc1F)=NC2)C[C@@H](C(F)F)C3 [Example 3, (13R)-13-(difluoromethyl)-9-(2,6-difluorophenyl)-3-methyl-16-thia-2,4,5,8-tetrazatetracyclo [8.6.0.02,6.011,15]hexadeca-1(10),3,5,8,11(15)-pentaene]	257	88.4	1.95	1.8	–
